Source: ChEMBL document CHEMBL4507276 (2021)

Assays:
[1] = target: Serine/threonine-protein kinase MARK1 (Homo sapiens) (UniProt Q9P0L2); conditions: Compound concentration 1000.0 nM
[2] = target: Histamine H1 receptor (Homo sapiens) (UniProt P35367); assay: H1/PYRIL/HS Cerep selectivity data (BI); conditions: Compound concentration 20.0 uM
[3] = target: Tyrosine-protein kinase Lyn (Homo sapiens) (UniProt P07948); assay: LYNAKINASE(H) Cerep selectivity data (BI); conditions: Compound concentration 20.0 uM
Sequence of Tyrosine-protein kinase Lyn (Homo sapiens) (P07948 2-512 limits assumed): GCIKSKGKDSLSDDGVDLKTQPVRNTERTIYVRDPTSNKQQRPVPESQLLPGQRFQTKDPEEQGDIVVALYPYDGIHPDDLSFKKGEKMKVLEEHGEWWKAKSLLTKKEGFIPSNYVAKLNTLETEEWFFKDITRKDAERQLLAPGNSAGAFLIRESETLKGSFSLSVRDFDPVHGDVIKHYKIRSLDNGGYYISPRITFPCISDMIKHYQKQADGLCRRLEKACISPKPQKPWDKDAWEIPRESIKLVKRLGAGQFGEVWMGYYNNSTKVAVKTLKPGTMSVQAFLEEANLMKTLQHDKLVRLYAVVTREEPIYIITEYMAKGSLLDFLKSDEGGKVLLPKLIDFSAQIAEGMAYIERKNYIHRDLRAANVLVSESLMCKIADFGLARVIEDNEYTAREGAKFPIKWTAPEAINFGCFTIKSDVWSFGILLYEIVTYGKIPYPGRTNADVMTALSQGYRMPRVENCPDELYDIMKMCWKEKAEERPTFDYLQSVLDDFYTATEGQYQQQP

[4] = target: T1, Muscarinic acetylcholine receptor M2 (Homo sapiens) (UniProt P08172); assay: M2/H Cerep selectivity data (BI); conditions: filed as antagonist, Compound concentration 20.0 uM
T1 sequence (whole entry): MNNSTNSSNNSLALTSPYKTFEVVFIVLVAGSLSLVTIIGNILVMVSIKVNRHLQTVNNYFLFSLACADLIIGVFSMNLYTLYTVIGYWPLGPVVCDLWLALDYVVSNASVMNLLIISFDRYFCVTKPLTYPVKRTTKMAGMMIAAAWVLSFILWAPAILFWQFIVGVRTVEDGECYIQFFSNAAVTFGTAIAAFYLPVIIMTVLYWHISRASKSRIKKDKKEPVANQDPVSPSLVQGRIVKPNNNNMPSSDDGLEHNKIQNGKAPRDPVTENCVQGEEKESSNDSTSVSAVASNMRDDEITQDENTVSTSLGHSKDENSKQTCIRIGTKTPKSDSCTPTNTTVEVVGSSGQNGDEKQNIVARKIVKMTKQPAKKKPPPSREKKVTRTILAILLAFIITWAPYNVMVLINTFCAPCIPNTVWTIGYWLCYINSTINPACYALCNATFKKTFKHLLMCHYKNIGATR

[5] = target: T2, Alpha-2A adrenergic receptor (Homo sapiens) (UniProt P08913); assay: ALPHA2A/H Eurofins-Panlabs selectivity data (BI); conditions: Compound concentration 10.0 uM
T2 sequence (whole entry): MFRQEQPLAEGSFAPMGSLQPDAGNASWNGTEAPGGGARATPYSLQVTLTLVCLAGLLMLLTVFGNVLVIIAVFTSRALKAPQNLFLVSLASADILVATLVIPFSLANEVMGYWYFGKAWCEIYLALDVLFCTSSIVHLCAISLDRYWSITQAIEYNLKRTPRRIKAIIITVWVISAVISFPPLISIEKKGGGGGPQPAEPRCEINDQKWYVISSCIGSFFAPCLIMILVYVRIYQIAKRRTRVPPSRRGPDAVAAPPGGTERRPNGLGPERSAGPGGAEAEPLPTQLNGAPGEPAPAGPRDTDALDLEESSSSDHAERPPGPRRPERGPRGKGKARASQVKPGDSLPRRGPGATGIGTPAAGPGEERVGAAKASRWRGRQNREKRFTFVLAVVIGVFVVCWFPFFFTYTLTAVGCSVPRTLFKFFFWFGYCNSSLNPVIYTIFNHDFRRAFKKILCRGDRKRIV

[6] = target: T3, Ephrin type-B receptor 2 (Homo sapiens) (UniProt P29323); assay: EPHB2 Invitrogen selectivity data (BI); conditions: Compound concentration 3.0 uM
T3 sequence (whole entry): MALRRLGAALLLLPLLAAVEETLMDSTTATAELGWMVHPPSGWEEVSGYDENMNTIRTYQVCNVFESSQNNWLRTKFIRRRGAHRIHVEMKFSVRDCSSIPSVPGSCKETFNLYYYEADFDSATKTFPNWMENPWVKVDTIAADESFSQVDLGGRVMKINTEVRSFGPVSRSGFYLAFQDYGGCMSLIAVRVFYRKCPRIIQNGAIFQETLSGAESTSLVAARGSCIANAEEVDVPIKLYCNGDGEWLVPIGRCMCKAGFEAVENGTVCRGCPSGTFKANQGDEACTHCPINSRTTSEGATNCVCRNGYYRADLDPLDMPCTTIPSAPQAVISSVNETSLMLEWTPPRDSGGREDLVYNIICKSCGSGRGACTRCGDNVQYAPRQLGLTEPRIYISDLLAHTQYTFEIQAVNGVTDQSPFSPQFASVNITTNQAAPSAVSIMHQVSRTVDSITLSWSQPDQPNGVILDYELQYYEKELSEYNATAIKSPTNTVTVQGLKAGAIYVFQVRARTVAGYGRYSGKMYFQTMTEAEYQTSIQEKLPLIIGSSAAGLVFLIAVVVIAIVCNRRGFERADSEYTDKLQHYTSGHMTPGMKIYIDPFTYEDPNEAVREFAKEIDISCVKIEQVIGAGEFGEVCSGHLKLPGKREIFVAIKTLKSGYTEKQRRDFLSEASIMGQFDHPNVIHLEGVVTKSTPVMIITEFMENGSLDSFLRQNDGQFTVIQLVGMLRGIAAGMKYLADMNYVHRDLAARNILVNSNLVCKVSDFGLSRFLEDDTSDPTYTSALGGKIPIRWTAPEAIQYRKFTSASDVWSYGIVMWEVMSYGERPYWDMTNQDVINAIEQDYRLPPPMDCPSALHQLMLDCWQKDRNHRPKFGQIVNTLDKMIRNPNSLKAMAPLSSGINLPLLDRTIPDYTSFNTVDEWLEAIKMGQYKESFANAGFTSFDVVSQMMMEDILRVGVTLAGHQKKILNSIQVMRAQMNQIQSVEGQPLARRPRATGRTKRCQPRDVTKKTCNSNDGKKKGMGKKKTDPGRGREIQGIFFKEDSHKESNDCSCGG

[7] = target: Homeodomain-interacting protein kinase 2 (Homo sapiens) (UniProt Q9H2X6); assay: HIPK2 Invitrogen selectivity data (BI); conditions: Compound concentration 3.0 uM
Sequence of Homeodomain-interacting protein kinase 2 (Homo sapiens) (Q9H2X6 whole entry, looked up): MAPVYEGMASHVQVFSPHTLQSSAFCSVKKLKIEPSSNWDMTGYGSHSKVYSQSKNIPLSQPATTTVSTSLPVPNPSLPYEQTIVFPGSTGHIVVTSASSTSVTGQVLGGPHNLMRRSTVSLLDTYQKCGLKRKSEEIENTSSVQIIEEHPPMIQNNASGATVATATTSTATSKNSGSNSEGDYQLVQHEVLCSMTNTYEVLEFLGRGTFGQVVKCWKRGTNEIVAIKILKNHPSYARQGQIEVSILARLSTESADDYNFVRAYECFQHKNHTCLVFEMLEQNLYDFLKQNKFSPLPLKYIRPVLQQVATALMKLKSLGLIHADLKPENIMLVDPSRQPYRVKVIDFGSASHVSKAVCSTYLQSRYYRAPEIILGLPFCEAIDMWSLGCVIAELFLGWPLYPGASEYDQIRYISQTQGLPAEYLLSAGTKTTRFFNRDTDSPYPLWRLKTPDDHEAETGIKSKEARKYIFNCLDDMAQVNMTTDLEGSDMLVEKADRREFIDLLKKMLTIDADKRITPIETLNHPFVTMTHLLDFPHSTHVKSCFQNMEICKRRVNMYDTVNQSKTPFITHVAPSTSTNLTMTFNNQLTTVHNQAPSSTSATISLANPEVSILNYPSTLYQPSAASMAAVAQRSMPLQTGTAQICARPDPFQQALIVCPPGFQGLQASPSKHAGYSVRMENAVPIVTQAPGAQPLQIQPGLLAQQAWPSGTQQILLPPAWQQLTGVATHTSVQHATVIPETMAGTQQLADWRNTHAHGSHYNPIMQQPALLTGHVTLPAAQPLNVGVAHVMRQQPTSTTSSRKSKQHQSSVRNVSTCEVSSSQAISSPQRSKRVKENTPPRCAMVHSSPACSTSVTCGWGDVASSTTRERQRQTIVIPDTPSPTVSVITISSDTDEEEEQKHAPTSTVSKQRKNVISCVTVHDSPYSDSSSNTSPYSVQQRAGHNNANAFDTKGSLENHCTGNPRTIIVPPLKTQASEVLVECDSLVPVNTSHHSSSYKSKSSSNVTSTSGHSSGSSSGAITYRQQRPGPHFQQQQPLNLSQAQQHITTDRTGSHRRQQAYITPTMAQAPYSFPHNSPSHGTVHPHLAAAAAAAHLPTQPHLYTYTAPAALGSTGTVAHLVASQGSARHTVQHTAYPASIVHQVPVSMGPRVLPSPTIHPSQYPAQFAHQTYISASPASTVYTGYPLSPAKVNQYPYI

[8] = target: Insulin receptor-related protein (Homo sapiens) (UniProt P14616); assay: INSRR Invitrogen selectivity data (BI); conditions: Compound concentration 3.0 uM
Sequence of Insulin receptor-related protein (Homo sapiens) (P14616 27-742 limits assumed): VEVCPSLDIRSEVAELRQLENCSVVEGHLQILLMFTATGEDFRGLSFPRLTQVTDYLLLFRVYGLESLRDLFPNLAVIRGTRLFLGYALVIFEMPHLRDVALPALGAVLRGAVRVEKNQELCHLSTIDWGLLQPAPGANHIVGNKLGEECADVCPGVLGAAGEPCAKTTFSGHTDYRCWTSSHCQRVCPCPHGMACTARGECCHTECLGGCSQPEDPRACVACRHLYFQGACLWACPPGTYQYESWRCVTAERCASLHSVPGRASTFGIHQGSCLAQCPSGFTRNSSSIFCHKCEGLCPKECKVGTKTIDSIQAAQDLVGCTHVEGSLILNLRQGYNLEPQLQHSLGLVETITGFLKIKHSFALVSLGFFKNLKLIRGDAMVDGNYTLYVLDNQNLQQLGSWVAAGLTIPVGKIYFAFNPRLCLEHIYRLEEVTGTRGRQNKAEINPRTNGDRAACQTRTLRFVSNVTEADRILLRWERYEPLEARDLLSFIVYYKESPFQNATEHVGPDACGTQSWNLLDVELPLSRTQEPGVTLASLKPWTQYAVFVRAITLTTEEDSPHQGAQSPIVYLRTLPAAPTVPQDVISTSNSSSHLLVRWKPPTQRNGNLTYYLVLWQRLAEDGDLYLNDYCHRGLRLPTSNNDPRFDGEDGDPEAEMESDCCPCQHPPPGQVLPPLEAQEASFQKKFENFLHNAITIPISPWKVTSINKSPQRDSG
Sequence of Insulin receptor-related protein (Homo sapiens) (P14616 747-1297 limits assumed): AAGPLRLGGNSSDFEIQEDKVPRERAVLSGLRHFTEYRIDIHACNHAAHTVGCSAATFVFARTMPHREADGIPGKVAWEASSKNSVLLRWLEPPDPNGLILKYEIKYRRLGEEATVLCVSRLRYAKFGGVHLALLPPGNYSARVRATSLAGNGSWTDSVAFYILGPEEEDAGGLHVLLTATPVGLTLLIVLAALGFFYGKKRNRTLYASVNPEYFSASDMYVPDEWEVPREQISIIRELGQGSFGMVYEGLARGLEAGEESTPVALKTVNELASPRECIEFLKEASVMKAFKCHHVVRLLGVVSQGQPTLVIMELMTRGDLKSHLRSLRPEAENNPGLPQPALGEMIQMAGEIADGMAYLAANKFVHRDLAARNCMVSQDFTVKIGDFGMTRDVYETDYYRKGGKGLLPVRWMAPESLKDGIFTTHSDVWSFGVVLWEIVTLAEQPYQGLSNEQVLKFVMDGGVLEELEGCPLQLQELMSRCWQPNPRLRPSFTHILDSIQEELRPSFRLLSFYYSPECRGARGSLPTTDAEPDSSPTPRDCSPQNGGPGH

[9] = target: Serine/threonine-protein kinase Nek6 (Homo sapiens) (UniProt Q9HC98); assay: NEK6 Invitrogen selectivity data (BI); conditions: Compound concentration 3.0 uM
Sequence of Serine/threonine-protein kinase Nek6 (Homo sapiens) (Q9HC98 whole entry): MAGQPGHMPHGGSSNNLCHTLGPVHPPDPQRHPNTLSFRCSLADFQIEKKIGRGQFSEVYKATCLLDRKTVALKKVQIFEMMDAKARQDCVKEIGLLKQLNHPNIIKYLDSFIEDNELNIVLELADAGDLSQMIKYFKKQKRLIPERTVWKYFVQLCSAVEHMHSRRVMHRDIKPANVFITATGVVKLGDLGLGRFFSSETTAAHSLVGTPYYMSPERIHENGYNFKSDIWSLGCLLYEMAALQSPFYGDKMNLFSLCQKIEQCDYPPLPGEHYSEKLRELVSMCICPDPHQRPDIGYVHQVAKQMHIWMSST

[10] = target: Protein kinase C delta type (Homo sapiens) (UniProt Q05655); assay: PRKCD Invitrogen selectivity data (BI); conditions: Compound concentration 3.0 uM
Sequence of Protein kinase C delta type (Homo sapiens) (Q05655 whole entry, looked up): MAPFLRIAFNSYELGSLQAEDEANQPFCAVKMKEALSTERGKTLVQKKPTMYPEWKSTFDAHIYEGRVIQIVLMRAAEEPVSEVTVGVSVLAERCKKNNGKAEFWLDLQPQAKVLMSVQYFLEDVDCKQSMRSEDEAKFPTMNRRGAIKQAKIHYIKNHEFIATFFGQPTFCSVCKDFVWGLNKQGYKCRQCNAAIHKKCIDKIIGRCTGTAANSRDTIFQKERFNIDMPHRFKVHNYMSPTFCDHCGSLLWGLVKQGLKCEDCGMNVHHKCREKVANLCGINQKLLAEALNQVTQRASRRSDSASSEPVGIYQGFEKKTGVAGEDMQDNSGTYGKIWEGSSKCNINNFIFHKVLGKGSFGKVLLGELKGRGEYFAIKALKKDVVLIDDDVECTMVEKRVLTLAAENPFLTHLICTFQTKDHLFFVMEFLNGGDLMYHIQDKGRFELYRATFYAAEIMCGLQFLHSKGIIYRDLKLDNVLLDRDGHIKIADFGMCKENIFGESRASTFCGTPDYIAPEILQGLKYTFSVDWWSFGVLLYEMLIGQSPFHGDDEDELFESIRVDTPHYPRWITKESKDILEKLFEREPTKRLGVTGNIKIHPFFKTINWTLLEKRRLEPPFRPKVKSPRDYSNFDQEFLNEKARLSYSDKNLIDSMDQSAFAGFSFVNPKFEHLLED

[11] = target: Protein kinase C gamma type (Homo sapiens) (UniProt P05129); assay: PRKCG Invitrogen selectivity data (BI); conditions: Compound concentration 3.0 uM

Measured: residual activity

CN(C)C(=O)Cn1cc(-c2nc(C3(c4ccc(-c5cnc(N)nc5)cc4)CC3)no2)cn1 [BI 0153]
inactive: [1] 100%

CN(C)C(=O)Cn1cc(-c2nc([C@@](C)(c3ccc(-c4cnc(N)nc4)cc3)C3CC3)no2)cn1 [BI 665915]
inactive: [2] 89% | [3] 87% | [4] 98% | [5] 105% | [6] 93.5% | [7] 96% | [8] 96% | [9] 96% | [10] 103% | [11] 100%
